In ChEMBL document CHEMBL5726876, “NHE3-binding compounds and methods for inhibiting phosphate transport” (2019):
pIC50: −log10 of the molar value.

Experiment: Cell-based activity under Prompt Conditions: Cell-based activity under Prompt Conditions. Rat or human NHE3-mediated Na+-dependent H+ antiport was measured using a modification of the pH sensitive dye method originally reported by Paradiso (PNAS USA. 81:7436-7440, 1984). Opossum kidney (OK) cells were obtained from the ATCC and propagated per their instructions. The rat NHE3 gene (GenBank M85300) or the human NHE3 gene (GenBank NM_004174.1) was introduced into OK cells via electroporation, and cells were seeded into 96 well plates and grown overnight. Medium was aspirated from the wells, cells were washed twice with NaCl-HEPES buffer (100 mM NaCl, 50 mM HEPES, 10 mM glucose, 5 mM KCl, 2 mM CaCl2, 1 mM MgCl2, pH 7.4), then incubated for 30 min at room temperature with NH4Cl-HEPES buffer (20 mM NH4Cl, 80 mM NaCl, 50 mM HEPES, 5 mM KCl, 2 mM CaCl2, 1 mM MgCl2, pH 7.4) containing 5 μM bis(acetoxymethyl) 3,3′-(3′,6′-bis(acetoxymethoxy)-5-((acetoxymethoxy)carbonyl)-3-oxo-3H-spiro[isobenzofuran-1,9′-xanthene]-2′,7′-diyl)dipropanoate (BCECF-AM).Cells were washed twice with Ammonium free, Na+-free HEPES (100 mM choline, 50 mM HEPES, 10 mM glucose, 5 mM KCl, 2 mM CaCl2, 1 mM MgCl2, pH 7.4) and incubated in the same buffer for 10 minutes at room temperature to lower intracellular pH. […] Initial rates were plotted as the average 2 or more replicates, and pIC50 values were estimated using GraphPad Prism.

Compound	pIC50
CN1Cc2c(Cl)cc(Cl)cc2[C@H](c2cccc(S(=O)(=O)NCCOCCOCCOCCNC(=O)CC(CC(=O)NCCOCCOCCOCCNS(=O)(=O)c3cccc([C@@H]4CN(C)Cc5c(Cl)cc(Cl)cc54)c3)C(=O)NCCOCCOCCOCCNS(=O)(=O)c3cccc([C@@H]4CN(C)Cc5c(Cl)cc(Cl)cc54)c3)c2)C1	7.50
CN1Cc2c(Cl)cc(Cl)cc2[C@H](c2cccc(S(=O)(=O)NCCOCCOCCOCCn3cc(CN(Cc4cn(CCOCCOCCOCCNS(=O)(=O)c5cccc([C@@H]6CN(C)Cc7c(Cl)cc(Cl)cc76)c5)nn4)Cc4cnnn4CCOCCOCCOCCNS(=O)(=O)c4cccc([C@@H]5CN(C)Cc6c(Cl)cc(Cl)cc65)c4)nn3)c2)C1	5.30
CN1Cc2c(Cl)cc(Cl)cc2[C@H](c2cccc(S(=O)(=O)NCCOCCOCCNC(=O)CN(CCOCCOCCN(CC(=O)NCCOCCOCCNS(=O)(=O)c3cccc([C@@H]4CN(C)Cc5c(Cl)cc(Cl)cc54)c3)CC(=O)NCCOCCOCCNS(=O)(=O)c3cccc([C@@H]4CN(C)Cc5c(Cl)cc(Cl)cc54)c3)CC(=O)NCCOCCOCCNS(=O)(=O)c3cccc([C@@H]4CN(C)Cc5c(Cl)cc(Cl)cc54)c3)c2)C1	5.80
CN1Cc2c(Cl)cc(Cl)cc2[C@H](c2cccc(S(=O)(=O)NCCOCCOCCOCCNC(=O)CC(O)(CC(=O)NCCOCCOCCOCCNS(=O)(=O)c3cccc([C@@H]4CN(C)Cc5c(Cl)cc(Cl)cc54)c3)C(=O)NCCOCCOCCOCCNS(=O)(=O)c3cccc([C@@H]4CN(C)Cc5c(Cl)cc(Cl)cc54)c3)c2)C1	7.00
NCCOCCOCCNS(=O)(=O)c1ccc(O[C@H]2c3ccccc3C[C@@H]2N2CCCCC2)cc1	6.35
CN1Cc2c(Cl)cc(Cl)cc2[C@H](c2cccc(S(=O)(=O)NCCOCCOCCOCCNC(=O)CN3CCN(CC(=O)NCCOCCOCCOCCNS(=O)(=O)c4cccc([C@@H]5CN(C)Cc6c(Cl)cc(Cl)cc65)c4)CCN(CC(=O)NCCOCCOCCOCCNS(=O)(=O)c4cccc([C@@H]5CN(C)Cc6c(Cl)cc(Cl)cc65)c4)CCN(CC(=O)NCCOCCOCCOCCNS(=O)(=O)c4cccc([C@@H]5CN(C)Cc6c(Cl)cc(Cl)cc65)c4)CC3)c2)C1	6.30
CN1Cc2c(Cl)cc(Cl)cc2[C@H](c2cccc(S(=O)(=O)NCCOCCOCCOCCNC(=O)CN(CC(=O)NCCOCCOCCOCCNS(=O)(=O)c3cccc([C@@H]4CN(C)Cc5c(Cl)cc(Cl)cc54)c3)CC(=O)NCCOCCOCCOCCNS(=O)(=O)c3cccc([C@@H]4CN(C)Cc5c(Cl)cc(Cl)cc54)c3)c2)C1	7.10
CN1Cc2c(Cl)cc(Cl)cc2[C@H](c2cccc(S(=O)(=O)NCCOCCOCCNC(=O)CN(CC(=O)NCCOCCOCCNS(=O)(=O)c3cccc([C@@H]4CN(C)Cc5c(Cl)cc(Cl)cc54)c3)CC(=O)NCCOCCOCCNS(=O)(=O)c3cccc([C@@H]4CN(C)Cc5c(Cl)cc(Cl)cc54)c3)c2)C1	6.30
CN1Cc2c(Cl)cc(Cl)cc2[C@H](c2cccc(S(=O)(=O)NCCOCCOCCNC(=O)NCCCN(CCCNC(=O)NCCOCCOCCNS(=O)(=O)c3cccc([C@@H]4CN(C)Cc5c(Cl)cc(Cl)cc54)c3)CCCNC(=O)NCCOCCOCCNS(=O)(=O)c3cccc([C@@H]4CN(C)Cc5c(Cl)cc(Cl)cc54)c3)c2)C1	6.25
CN1Cc2c(Cl)cc(Cl)cc2[C@H](c2cccc(S(=O)(=O)NCCOCCOCCNC(=O)CC(O)(CC(=O)NCCOCCOCCNS(=O)(=O)c3cccc([C@@H]4CN(C)Cc5c(Cl)cc(Cl)cc54)c3)C(=O)NCCOCCOCCNS(=O)(=O)c3cccc([C@@H]4CN(C)Cc5c(Cl)cc(Cl)cc54)c3)c2)C1	6.00
O=C(NCCCCNC(=O)NCCOCCOCCNS(=O)(=O)c1ccc(O[C@H]2c3cc(Cl)cc(Cl)c3C[C@@H]2N2CCCCC2)cc1)NCCOCCOCCNS(=O)(=O)c1ccc(O[C@H]2c3cc(Cl)cc(Cl)c3C[C@@H]2N2CCCCC2)cc1	> 5.00
CN1Cc2c(Cl)cc(Cl)cc2[C@H](c2cccc(S(=O)(=O)NCCOCCOCCNC(=O)NCCN(CCNC(=O)NCCOCCOCCNS(=O)(=O)c3cccc([C@@H]4CN(C)Cc5c(Cl)cc(Cl)cc54)c3)C(=O)CCCCCCCCCCC(=O)N(CCNC(=O)NCCOCCOCCNS(=O)(=O)c3cccc([C@@H]4CN(C)Cc5c(Cl)cc(Cl)cc54)c3)CCNC(=O)NCCOCCOCCNS(=O)(=O)c3cccc([C@@H]4CN(C)Cc5c(Cl)cc(Cl)cc54)c3)c2)C1	> 5.00
CN1Cc2c(Cl)cc(Cl)cc2[C@H](c2cccc(S(=O)(=O)NCCOCCOCCNC(=O)CN(CCN(CC(=O)O)CC(=O)NCCOCCOCCNS(=O)(=O)c3cccc([C@@H]4CN(C)Cc5c(Cl)cc(Cl)cc54)c3)CC(=O)O)c2)C1	7.90
CN1Cc2c(Cl)cc(Cl)cc2[C@H](c2cccc(S(=O)(=O)NCCOCCOCCNC(=O)CCN(CCC(=O)NCCOCCOCCNS(=O)(=O)c3cccc([C@@H]4CN(C)Cc5c(Cl)cc(Cl)cc54)c3)CCC(=O)NCCOCCOCCNS(=O)(=O)c3cccc([C@@H]4CN(C)Cc5c(Cl)cc(Cl)cc54)c3)c2)C1	5.50
CN1Cc2c(Cl)cc(Cl)cc2[C@H](c2cccc(S(=O)(=O)NCCOCCOCCOCCNC(=O)c3cc(C(=O)NCCOCCOCCOCCNS(=O)(=O)c4cccc([C@@H]5CN(C)Cc6c(Cl)cc(Cl)cc65)c4)cc(C(=O)NCCOCCOCCOCCNS(=O)(=O)c4cccc([C@@H]5CN(C)Cc6c(Cl)cc(Cl)cc65)c4)c3)c2)C1	6.90
CN1Cc2c(Cl)cc(Cl)cc2[C@H](c2cccc(S(=O)(=O)NCCOCCOCCOCCNC(=O)CN3CCN(c4nc(N5CCN(CC(=O)NCCOCCOCCOCCNS(=O)(=O)c6cccc([C@@H]7CN(C)Cc8c(Cl)cc(Cl)cc87)c6)CC5)nc(N5CCN(CC(=O)NCCOCCOCCOCCNS(=O)(=O)c6cccc([C@@H]7CN(C)Cc8c(Cl)cc(Cl)cc87)c6)CC5)n4)CC3)c2)C1	6.60

Compound	pIC50
CN1Cc2c(Cl)cc(Cl)cc2[C@H](c2cccc(S(=O)(=O)NCCOCCOCCOCCNC(=O)NCCN(CCNC(=O)NCCOCCOCCOCCNS(=O)(=O)c3cccc([C@@H]4CN(C)Cc5c(Cl)cc(Cl)cc54)c3)CCNC(=O)NCCOCCOCCOCCNS(=O)(=O)c3cccc([C@@H]4CN(C)Cc5c(Cl)cc(Cl)cc54)c3)c2)C1	6.90
CN1Cc2c(Cl)cc(Cl)cc2[C@H](c2cccc(S(=O)(=O)NCCOCCOCCNC(=O)NCCN(CCNC(=O)NCCOCCOCCNS(=O)(=O)c3cccc([C@@H]4CN(C)Cc5c(Cl)cc(Cl)cc54)c3)CCNC(=O)NCCOCCOCCNS(=O)(=O)c3cccc([C@@H]4CN(C)Cc5c(Cl)cc(Cl)cc54)c3)c2)C1	5.60
CN1Cc2c(Cl)cc(Cl)cc2[C@H](c2cccc(S(=O)(=O)NCCOCCOCCOCCNC(=O)NCCN3CCN(c4nc(N5CCN(CCNC(=O)NCCOCCOCCOCCNS(=O)(=O)c6cccc([C@@H]7CN(C)Cc8c(Cl)cc(Cl)cc87)c6)CC5)nc(N5CCN(CCNC(=O)NCCOCCOCCOCCNS(=O)(=O)c6cccc([C@@H]7CN(C)Cc8c(Cl)cc(Cl)cc87)c6)CC5)n4)CC3)c2)C1	6.70
NCCOCCOCCNS(=O)(=O)c1ccc(O[C@H]2c3cc(Cl)cc(Cl)c3C[C@@H]2N2CCCCC2)cc1	> 5.00
CN1Cc2c(Cl)cc(Cl)cc2[C@H](c2cccc(S(=O)(=O)NCCOCCOCCOCCNC(=O)CN(CCN(CC(=O)O)CC(=O)NCCOCCOCCOCCNS(=O)(=O)c3cccc([C@@H]4CN(C)Cc5c(Cl)cc(Cl)cc54)c3)CC(=O)O)c2)C1	8.00
CN1Cc2c(Cl)cc(Cl)cc2[C@H](c2cccc(S(=O)(=O)NCCOCCOCCOCCNC(=O)CN(CCN(CC(=O)NCCOCCOCCOCCNS(=O)(=O)c3cccc([C@@H]4CN(C)Cc5c(Cl)cc(Cl)cc54)c3)CC(=O)NCCOCCOCCOCCNS(=O)(=O)c3cccc([C@@H]4CN(C)Cc5c(Cl)cc(Cl)cc54)c3)CCN(CC(=O)NCCOCCOCCOCCNS(=O)(=O)c3cccc([C@@H]4CN(C)Cc5c(Cl)cc(Cl)cc54)c3)CC(=O)NCCOCCOCCOCCNS(=O)(=O)c3cccc([C@@H]4CN(C)Cc5c(Cl)cc(Cl)cc54)c3)c2)C1	6.30
CN1Cc2c(Cl)cc(Cl)cc2[C@H](c2cccc(S(=O)(=O)NCCOCCOCCOCCNC(=O)CN(CC(=O)NCCOCCOCCOCCNS(=O)(=O)c3cccc([C@@H]4CN(C)Cc5c(Cl)cc(Cl)cc54)c3)[C@@H]3CCCC[C@H]3N(CC(=O)NCCOCCOCCOCCNS(=O)(=O)c3cccc([C@@H]4CN(C)Cc5c(Cl)cc(Cl)cc54)c3)CC(=O)NCCOCCOCCOCNS(=O)(=O)c3cccc([C@@H]4CN(C)Cc5c(Cl)cc(Cl)cc54)c3)c2)C1	6.50
CCOCCOCCOCCNC(=O)CN(C)CC(=O)NCCOCCOCCOCCNS(=O)(=O)c1ccc(O[C@H]2c3ccccc3C[C@@H]2N2CCCCC2)cc1	7.35
CCOCCOCCOCCOCCC(=O)NCCOCCOCCNS(=O)(=O)c1ccc(OC2c3ccccc3C[C@@H]2N2CCCCC2)cc1 (some centres not stated)	7.30
CN1Cc2c(Cl)cc(Cl)cc2C(c2cccc(S(=O)(=O)NCCOCCOCCOCCNC(=O)CCN(CCC(=O)NCCOCCOCCOCCNS(=O)(=O)c3cccc([C@@H]4CN(C)Cc5c(Cl)cc(Cl)cc54)c3)CCC(=O)NCCOCCOCCOCCNS(=O)(=O)c3cccc([C@@H]4CN(C)Cc5c(Cl)cc(Cl)cc54)c3)c2)C1 (some centres not stated)	6.50
CCOCCOCCOCCOCCC(=O)NCCOCCOCCOCCNS(=O)(=O)c1ccc(O[C@H]2c3ccccc3C[C@@H]2N2CCCCC2)cc1	7.45
CCOCCOCCC(=O)N(CCNC(=O)NCCOCCOCCNS(=O)(=O)c1cccc([C@@H]2CN(C)Cc3c(Cl)cc(Cl)cc32)c1)CCNC(=O)NCCOCCOCCNS(=O)(=O)c1cccc([C@@H]2CN(C)Cc3c(Cl)cc(Cl)cc32)c1	6.80
CCOCCOCCOCCNC(=O)[C@H](O)[C@@H](O)C(=O)NCCOCCOCCOCCNS(=O)(=O)c1ccc(O[C@H]2c3ccccc3C[C@@H]2N2CCCCC2)cc1	7.70
CCOCCN(CC(=O)NCCOCCOCCOCCNS(=O)(=O)c1cccc([C@@H]2CN(C)Cc3c(Cl)cc(Cl)cc32)c1)CC(=O)NCCOCCOCCOCCNS(=O)(=O)c1cccc([C@@H]2CCN(C)c3c(Cl)cc(Cl)cc32)c1	7.20
CN(CCCNC(=O)NCCOCCOCCOCCNS(=O)(=O)c1cccc([C@@H]2CN(C)Cc3c(Cl)cc(Cl)cc32)c1)CCCNC(=O)NCCOCCOCCOCCNS(=O)(=O)c1cccc([C@@H]2CN(C)Cc3c(Cl)cc(Cl)cc32)c1	7.40
CCOCCOCCOCCNC(=O)NCCCCNC(=O)NCCOCCOCCOCCNS(=O)(=O)c1ccc(O[C@H]2c3ccccc3C[C@@H]2N2CCCCC2)cc1	7.40
